{"source": "PubChem BioAssay (NCI)", "experiment_in_all_cases": "NCI tumour cell line growth inhibition, 48 h", "key": {"[1]": {"test_system": "UO-31 renal"}, "[2]": {"test_system": "BT-549 breast"}, "[3]": {"test_system": "HCC-2998 colon"}, "[4]": {"test_system": "MALME-3M melanoma"}, "[5]": {"test_system": "M14 melanoma"}, "[6]": {"test_system": "RPMI-8226 leukemia"}, "[7]": {"test_system": "HCT-116 colon"}, "[8]": {"test_system": "K-562 leukemia"}, "[9]": {"test_system": "T-47D breast"}, "[10]": {"test_system": "NCI/ADR-RES ovarian"}, "[11]": {"test_system": "OVCAR-4 ovarian"}, "[12]": {"test_system": "SR leukemia"}, "[13]": {"test_system": "OVCAR-5 ovarian"}, "[14]": {"test_system": "HS 578T breast"}, "[15]": {"test_system": "UACC-257 melanoma"}, "[16]": {"test_system": "KM12 colon"}, "[17]": {"test_system": "EKVX NSCLC"}, "[18]": {"test_system": "ACHN renal"}, "[19]": {"test_system": "SW-620 colon"}, "[20]": {"test_system": "RXF 393 renal"}, "[21]": {"test_system": "PC-3 prostate"}, "[22]": {"test_system": "TK-10 renal"}, "[23]": {"test_system": "SNB-75 CNS"}, "[24]": {"test_system": "LOX IMVI melanoma"}}, "note": "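Exposure lasted 48 hours, with cells grown in 96-well plates and compounds tested at five concentrations. Here, GI50 denotes the concentration required for 50% inhibition of growth. TGI marks complete inhibition of growth.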", "data": [{"smiles": "COc1ccc(NC(=O)Nc2ccccc2CNc2nc(Nc3ccc(OCCN4CCCC4)cc3)ncc2Cl)cc1", "values": [{"measurement": "TGI", "setting": "[1]", "result": 1440, "unit": "nM"}, {"measurement": "GI50", "setting": "[2]", "result": 788, "unit": "nM"}, {"measurement": "TGI", "setting": "[2]", "result": 1540, "unit": "nM"}, {"measurement": "GI50", "setting": "[3]", "result": 1010, "unit": "nM"}, {"measurement": "TGI", "setting": "[3]", "result": 2180, "unit": "nM"}, {"measurement": "GI50", "setting": "[4]", "result": 845, "unit": "nM"}, {"measurement": "TGI", "setting": "[4]", "result": 1580, "unit": "nM"}, {"measurement": "GI50", "setting": "[5]", "result": 833, "unit": "nM"}, {"measurement": "TGI", "setting": "[5]", "result": 1640, "unit": "nM"}, {"measurement": "GI50", "setting": "[6]", "result": 1730, "unit": "nM"}, {"measurement": "TGI", "setting": "[6]", "result": "> 50", "unit": "µM"}, {"measurement": "GI50", "setting": "[7]", "result": 902, "unit": "nM"}, {"measurement": "TGI", "setting": "[7]", "result": 1750, "unit": "nM"}, {"measurement": "GI50", "setting": "[8]", "result": 1630, "unit": "nM"}, {"measurement": "TGI", "setting": "[8]", "result": "> 50", "unit": "µM"}, {"measurement": "GI50", "setting": "[9]", "result": 1020, "unit": "nM"}, {"measurement": "TGI", "setting": "[9]", "result": 2540, "unit": "nM"}, {"measurement": "GI50", "setting": "[10]", "result": 1100, "unit": "nM"}, {"measurement": "TGI", "setting": "[10]", "result": 2640, "unit": "nM"}, {"measurement": "GI50", "setting": "[11]", "result": 879, "unit": "nM"}, {"measurement": "TGI", "setting": "[11]", "result": 1690, "unit": "nM"}, {"measurement": "GI50", "setting": "[12]", "result": 1540, "unit": "nM"}, {"measurement": "TGI", "setting": "[12]", "result": "> 50", "unit": "µM"}, {"measurement": "GI50", "setting": "[13]", "result": 1020, "unit": "nM"}, {"measurement": "TGI", "setting": "[13]", "result": 2080, "unit": "nM"}, {"measurement": "GI50", "setting": "[14]", "result": 1010, "unit": "nM"}, {"measurement": "TGI", "setting": "[14]", "result": 2380, "unit": "nM"}, {"measurement": "GI50", "setting": "[15]", "result": 926, "unit": "nM"}, {"measurement": "TGI", "setting": "[15]", "result": 1730, "unit": "nM"}, {"measurement": "GI50", "setting": "[16]", "result": 947, "unit": "nM"}, {"measurement": "TGI", "setting": "[16]", "result": 1770, "unit": "nM"}, {"measurement": "GI50", "setting": "[17]", "result": 2650, "unit": "nM"}, {"measurement": "TGI", "setting": "[17]", "result": 9.45, "unit": "µM"}, {"measurement": "GI50", "setting": "[18]", "result": 862, "unit": "nM"}, {"measurement": "TGI", "setting": "[18]", "result": 1550, "unit": "nM"}, {"measurement": "GI50", "setting": "[19]", "result": 1050, "unit": "nM"}, {"measurement": "TGI", "setting": "[19]", "result": 2500, "unit": "nM"}, {"measurement": "GI50", "setting": "[20]", "result": 828, "unit": "nM"}, {"measurement": "TGI", "setting": "[20]", "result": 1640, "unit": "nM"}, {"measurement": "GI50", "setting": "[21]", "result": 1200, "unit": "nM"}, {"measurement": "TGI", "setting": "[21]", "result": 2960, "unit": "nM"}, {"measurement": "GI50", "setting": "[22]", "result": 990, "unit": "nM"}, {"measurement": "TGI", "setting": "[22]", "result": 1980, "unit": "nM"}, {"measurement": "GI50", "setting": "[23]", "result": 755, "unit": "nM"}, {"measurement": "TGI", "setting": "[23]", "result": 1450, "unit": "nM"}, {"measurement": "GI50", "setting": "[24]", "result": 894, "unit": "nM"}, {"measurement": "TGI", "setting": "[24]", "result": 1640, "unit": "nM"}]}]}
